# Assay results as given in patent EP2769722A1 (Ruprecht-Karls-Universität Heidelberg, priority 2013, dated 2014).
# Where a name gives a salt, the structure may show the parent alone.
# Molecular target: T1, CA (Human immunodeficiency virus type 1 group M subtype B, UniProt P12493)
# T1 construct: a fusion protein of CA with glutathione-S-transferase (CA-GST)
# Assay: AlphaScreen: inhibition of CAI-biotin peptide binding to CA-GST
# Parameters: species or system HIV-1
# Settings: inhibition of CAI binding to CA (CA-GST fusion); compounds screened at 0.5-100 µM; read-out: α screen IC50
# Description: The AlphaScreen experiments are performed using Perkin Elmer Enspire plate reader in white 96-well ProxiPlates and PBS supplemented with 0.05% Tween20, 2mM DTT, 2% DMSO. First, Streptavidin-coated Donor beads are used to capture the CAI-biotin peptide. In the other solution, a fusion protein of CA with glutathione-S-transferase (CA-GST) is mixed with GSH Acceptor beads. Both mixtures were incubated and then mixed together. To test the ability of prepared organic compounds to inhibit the CAI binding to CA, they are screened at concentrations between 0.5-100 µM and IC50 values are calculated from the influenced signals.
# Upon illumination by laser at 680 nm, Donor beads containing the photosensitizer phthalocyanine convert ambient oxygen to an excited form of singlet oxygen ^1O2. Singlet oxygen can within its half-life of ∼ 4µs diffuse approximately 200 nm in solution. If an Acceptor bead is within that proximity, which is mostly upon CA:CAI interaction, energy is transferred from the singlet oxygen to thioxene derivates within the Acceptor and signal at 520 - 620 nm is emitted. […] Table 4: Synthesized and tested compounds
row,Compound,IC50
1,"CCOC(=O)c1ccccc1Nc1ccnc(-c2cccnc2)n1 [KP-347, Ethyl 2-{[2-(pyridm-3-yl)pyrimidm-4-yl]amino}benzoate hydrochloride]",> 100 µM
2,"Cc1cc(Nc2ccc(C(=O)NCCF)cc2F)nc(-c2cccnc2)n1 [AMR-829, 3-fluoro-N-(2-fluoroethyl)-4-((6-methyl-2-(pyridin-3-yl)pyrimidin-4-yl)amino)benzamide hydrochloride]",15 µM
3,"CCOC(=O)c1ccc(Nc2ccnc(-c3cccnc3)n2)cc1 [AMR-722, ethyl4-((2-(pyridin-3-yl)pyrimidin-4-yl)amino)benzoate hydrochloride]",19 µM
4,"O=C(NCCF)c1ccc(Nc2ccnc(-c3cccnc3)n2)cc1 [AMR-792, N-(2-fluoroethyl)-4-((2-(pyridin-3-yl)pyrimidin-4-yl)amino)benzamide hydrochloride]",34 µM
5,"Cc1cc(Nc2ccc(C(=O)NCCF)c(F)c2)nc(-c2cccnc2)n1 [AMR-828, 2-fluoro-N-(2-fluoroethyl)-4-((6-methyl-2-(pyridin-3-yl)pyrimidin-4-yl)amino)benzamide hydrochloride]",3 µM
